Data from EP0594540B1, “Antiretroviral acyl compounds” (Novartis AG, priority 1992, dated 1994).

Experiment: Blood concentration in mice after oral administration (reversed-phase HPLC)
Type: in vivo, Mäusen
Conditions: oral gavage
Experimental: Die zu untersuchenden Verbindungen der Formel I oder als Kontrolle die Vergleichsverbindung der Formel II werden in Dimethylsulfoxid (DMSO) in einer Konzentration von 240 mg/ml gelöst. Die resultierenden Lösungen werden mit 20% (w/v) Hydroxypropyl-β-cyclodextrin (HPβCD) verdünnt, um eine Konzentration der Testsubstanz von 12 mg/ml zu erhalten. Diese Lösung wird Mäusen durch künstliche Sonderernährung in einer Dosis von 120 mg/kg verabreicht. 30, 60, 90 und 120 min nach der Verabreichung werden die Tiere getötet und Blut entnommen. Pro Zeitpunkt werden drei bis vier Tiere untersucht. Das Blut wird heparinisiert und für die Analyse durch eine der folgenden beiden Methoden vorbereitet: Nach der ersten Methode wird Vollblut deproteinisiert durch Mischen eines Volumenteils Blut mit einem Volumenteil Acetonitril; nach Zentrifugation wird der Überstand durch Reversed-Phase-HPLC untersucht. Nach der zweiten Methode wird ein interner Standard zum heparinisierten Blut in einer Endkonzentration von 4 µM zugegeben. Das Blut wird zentrifugiert. 0,25 ml Plasma werden abgenommen und mit einem gleichen Volumen Acetonitril deproteinisiert. Nach Zentrifugation wird der Überstand unter Vakuum eingetrocknet und der Rückstand in 20 µl 3M NaCl-Lösung und 100 µl 0,05M Phthalat-Puffer mit einem pH von 3,0 suspendiert. Die Suspension wird erst mit 1 ml, dann mit 0,2 ml Diisopropylether extrahiert. […]

CC(=O)O[C@H](CN1C[C@H]2CCCC[C@H]2C[C@H]1C(=O)NC(C)(C)C)[C@H](Cc1ccccc1)NC(=O)[C@H](CC(N)=O)NC(=O)c1ccc2ccccc2n1 [N-tert.-Butyl-decahydro-2-[2(R)-acetyloxy-4-phenyl-3(S)-[[N-(2-chinolylcarbonyl)-L-asparaginyl]amino]butyl]-(4aS,8aS)-isochinolin-3(S)-carboxamid]
Konzentration der aktiven Komponente der Formel II im Blut (120 mg/kg, 30, 60, 90 and 120 min after dosing, compared with administration of the compound of formula II in unesterified form): mehr als dreimal so hoch
Absorption der Verbindung der Formel I (120 mg/kg, compared with absorption of the compound of formula II): mehr als viermal so hoch
